Measurements as given in publication PMC7450057, “Enhancing intracellular accumulation and target engagement of PROTACs with reversible covalent chemistry” (Nature Communications, 2020).
“And” between values parts separate entries of the source, which are not always exact repeats. Equal values may be shown once. “Also recorded” adds a separate entry of the source. Read-outs that look alike come from different tables or passages of the source.

What was measured:
Mino cells = assay: AlamarBlue cell viability assay, Mino; type: cell-based; conditions: for Mino Cell Viability%: Figure 2f, 5 replicates
Protocol: (§3) The IC50 was calculated using GraphPad Prism software with a four-parameter dose-response curve fit.

BTK = BTK (Mus musculus, UniProt P35991); assay: Pharmacodynamics: splenic BTK level in mice (western blot); type: in vivo, ICR mice; parameters: from tissue; host or cells: spleen of female ICR mice; conditions: for BTK level, mean: Figure 5d, DMSO = 100; for BTK quantification: Supplementary Figure 8, individual animals
Sequence of BTK (P35991 whole entry): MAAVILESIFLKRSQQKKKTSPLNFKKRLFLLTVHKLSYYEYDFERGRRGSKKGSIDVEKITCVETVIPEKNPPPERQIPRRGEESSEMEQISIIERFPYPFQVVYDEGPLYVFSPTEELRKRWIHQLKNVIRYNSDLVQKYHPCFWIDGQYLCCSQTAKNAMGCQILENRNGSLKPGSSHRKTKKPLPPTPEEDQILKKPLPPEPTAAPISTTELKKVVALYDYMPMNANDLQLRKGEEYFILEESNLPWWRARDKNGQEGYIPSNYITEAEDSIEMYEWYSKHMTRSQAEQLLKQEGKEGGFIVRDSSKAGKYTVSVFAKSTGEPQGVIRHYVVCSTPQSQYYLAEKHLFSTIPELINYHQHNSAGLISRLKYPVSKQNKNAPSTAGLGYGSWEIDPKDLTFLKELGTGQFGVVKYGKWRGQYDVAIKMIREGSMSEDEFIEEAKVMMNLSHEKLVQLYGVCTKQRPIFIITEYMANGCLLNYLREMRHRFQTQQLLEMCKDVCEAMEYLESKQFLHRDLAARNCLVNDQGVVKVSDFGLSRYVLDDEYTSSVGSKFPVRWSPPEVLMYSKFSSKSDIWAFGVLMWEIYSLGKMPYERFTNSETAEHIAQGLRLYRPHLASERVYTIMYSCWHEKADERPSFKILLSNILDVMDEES
Protocol: (§1) The collected cells and spleen tissues were lysed in RIPA lysis buffer (50 mM Tris-HCl, pH 7.4, 150 mM NaCl, 1% NP-40, 0.5% sodium deoxycholate, 0.1% SDS) supplemented with Halt™ Protease and Phosphatase Inhibitor Cocktail (Thermo Fisher Scientific, Cat. No. PI78440) immediately before use. Lysates were centrifuged at 15,000 × g for 10 min at 4 °C and the supernatant was quantified for total protein concentration using the Pierce BCA Protein Assay (Thermo Fisher Scientific, Cat. No. 23225). Thirty micrograms of protein were loaded onto sodium dodecyl sulfate−polyacrylamide gel for electrophoresis (Bio-Rad) and transferred onto PVDF membranes (Millipore, Cat. No. IPVH00010). […] Imaging was performed using the ECL Prime chemiluminescent western blot detection reagents (GE Healthcare, Cat. No. RPN2232) by visualization of the blots to X-Ray film or with an Imager (Kindle Biosciences, Cat. No. D1001). All western blots were subsequently processed and quantified with Imager software. Protein level was normalized to β-actin or GAPDH loading controls.
(§2) To investigate the protein degradation effect of RC-1 in vivo, mice were subjected to single RC-1 administration at the dose of 50 or 100 mg kg^−1 (i.p.) or seven once-daily RC-1 administration at the dose of 20 mg kg^−1 (i.p.) (n = 2–3). Twenty-four hours after the one-time RC-1 injection or 24 h after the 7th injection, mice were anesthetized with isoflurane and the whole spleen was dissected and stored at −80 °C for western blot analysis of protein level.

[1] = Permeability by lipid-PAMPA method (Pharmaron); type: in vitro ADME; conditions: PAMPA
Protocol: The permeability of compounds was measured using Lipid-PAMPA method by Pharmaron. Preparation of stock solutions: testosterone and methotrexate were used as control compounds in this assay. The stock solutions of positive controls were prepared in DMSO or acetonitrile at the concentration of 10 mM. Prepare a stock solution of compounds in DMSO at the concentration of 10 mM, and further dilute with PBS (pH 7.4). […]
Assay procedures: prepare a 1.8% solution (w/v) of lecithin in dodecane, and sonicate the mixture to ensure a complete dissolution. Carefully pipette 5 μL of the lecithin/dodecane mixture into each acceptor plate well (top compartment), avoiding pipette tip contact with the membrane. Immediately after the application of the artificial membrane (within 10 min), add 300 μL of PBS (pH 7.4) solution to each well of the acceptor plate. Add 300 μL of drug-containing solutions to each well of the donor plate (bottom compartment) in triplicate. Slowly and carefully place the acceptor plate into the donor plate, making sure the underside of the membrane is in contact with the drug-containing solutions in all wells. Replace the plate lid and incubate at 25 °C, 60 rpm for 16 h. After incubation, aliquots of 50 μL from each well of acceptor and donor plate are transferred into a 96-well plate. Add 450 μL of methanol (containing IS: 100 nM Alprazolam, 200 nM Caffeine, 100 nM Tolbutamide) into each well. Cover with plate lid. Vortex at 750 rpm for 100 s. Samples were centrifuged at 3220 × g for 20 min. Determine the compound concentrations by LC/MS/MS. The effective permeability (Pe), in units of centimeter per second, can be calculated using the following equation: LogPe=LogC×−Ln1−drugacceptor/drugequilibrium

C481S mutant BTK = target: T1, C481S mutant BTK (Homo sapiens, UniProt Q06187, C481S); assay: BTK degradation in XLA cells overexpressing C481S mutant BTK (western blot); type: cell-based; conditions: 24 h
T1 construct: expressed in transfected cells; host or cells: XLA cells (gift from Dr. Woyach)
T1 sequence (Q06187 whole entry C481S): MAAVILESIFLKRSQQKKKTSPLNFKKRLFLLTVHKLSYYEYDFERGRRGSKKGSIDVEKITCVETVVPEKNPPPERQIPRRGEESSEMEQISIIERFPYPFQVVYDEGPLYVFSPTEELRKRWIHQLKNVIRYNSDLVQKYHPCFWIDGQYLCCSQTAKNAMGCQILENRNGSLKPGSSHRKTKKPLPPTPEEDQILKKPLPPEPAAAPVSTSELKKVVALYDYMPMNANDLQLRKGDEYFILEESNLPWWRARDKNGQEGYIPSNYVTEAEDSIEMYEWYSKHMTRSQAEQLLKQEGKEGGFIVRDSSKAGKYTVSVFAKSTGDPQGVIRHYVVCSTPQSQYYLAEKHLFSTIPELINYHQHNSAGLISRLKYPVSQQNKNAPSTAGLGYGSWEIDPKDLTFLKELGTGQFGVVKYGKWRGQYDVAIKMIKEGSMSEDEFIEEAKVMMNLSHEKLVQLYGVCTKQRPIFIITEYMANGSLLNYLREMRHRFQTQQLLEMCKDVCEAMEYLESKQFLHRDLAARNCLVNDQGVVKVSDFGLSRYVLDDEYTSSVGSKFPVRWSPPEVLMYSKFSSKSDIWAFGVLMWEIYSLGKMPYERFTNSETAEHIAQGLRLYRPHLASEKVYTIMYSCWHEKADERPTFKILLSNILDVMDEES
Protocol: XLA cells overexpressing wild-type BTK or mutant C481S BTK were plated at the same cell number and density as the above experiments and were treated with RC-1, IRC-1, or RNC-1 at the dose of 1.6, 8.0, 40, 200, and 1000 nM for 24 h. After completion of treatment, all the cells were collected and processed for western blot analysis.
as §1

IKZF3 = assay: Splenic IKZF3 level in mice after single RC-1 injection (western blot); type: in vivo, ICR mice; conditions: for IKZF3 level, mean: Figure 5d, DMSO = 100; for IKZF3 quantification: Supplementary Figure 8, individual animals
Protocol: as §2
Supplementary Figure 8. Protein degradation by BTK PROTAC RC-1 in mouse spleen. ICR mice were subjected to single IP injection of RC-1 at the dose of 50 mg/kg (n = 4) or 100 mg/kg (n = 3) and spleens were harvested 24 h after injection. (a) The splenic p-BTK(Y233), BTK, IKZF1 and IKZF3 levels were measured with Western blot. (b). Quantification of protein levels shown in (a). Data are presented as mean values ± SEM.
Asterisks indicate that the differences between samples are statistically significant, using two-tailed, unpaired t- […]
test (* p < 0.05; significant).
(1 picture or pasted object on this page, not shown here)

MOLM-14 cells = assay: AlamarBlue cell viability assay, MOLM-14; conditions: for MOLM-14 Cell Viability%: Figure 2f, 5 replicates
Protocol: as §3

CN(CCCNC(=O)CNc1cccc2c1C(=O)N(C1CCC(=O)NC1=O)C2=O)C(C)(C)C=C(C#N)C(=O)N1CCC[C@@H](n2nc(-c3ccc(Oc4ccccc4)cc3)c3c(N)ncnc32)C1 (some centres unmarked) [RC-1]
Mino Cell Viability% (Mino cells; 1.00E-06 M): 28.3764% and 24.0469% and 29.6497% and 18.1013% and 27.4262%
Mino Cell Viability% (Mino cells; 1.60E-09 M): 86.471% and 91.0355% and 88.9002% and 84.3749% and 77.1755%
Mino Cell Viability% (Mino cells; 2.00E-07 M): 40.1501% and 37.7601% and 35.1644% and 26.339% and 31.6381%
Mino Cell Viability% (Mino cells; 3.20E-10 M): 96.9028% and 99.5475% and 70.4757% and 81.6714% and 61.4054%
Mino Cell Viability% (Mino cells; 4.00E-08 M): 90.2127% and 74.3055% and 49.5631% and 47.134% and 61.6895%
Mino Cell Viability% (Mino cells; 5.00E-06 M): 17.0239% and 17.5724% and 29.8456% and 19.8449% and 25.2419%
Mino Cell Viability% (Mino cells; 8.00E-09 M): 98.4014% and 91.3588% and 67.7918% and 72.9048% and 65.2157%
IC50 (Mino cells; Homo sapiens, Mino cells, 72 h, Alamar Blue): 80 nM
BTK level reduction in the spleens (BTK; 20 mg kg^−1 i.p., 7 daily injections, vs vehicle-treated mice): ~ 50%
BTK level, mean (BTK; 1 injection): 58.8522
BTK level, mean (BTK; 7 injections): 59.7357
BTK quantification (BTK; RC-1 50 mg/kg, 50 mg/kg): 56.2321 and 63.4217 and 82.4136 and 62.324
BTK quantification (BTK; RC-1 100 mg/kg, 100 mg/kg): 59.6665 and 43.7954 and 40.8615
recovery at 16 h, 10 μM ([1]; Recovery%): 25.1%
Papp at 16 h, 10 μM ([1]; pH 7.4): < 0.00692 ×10⁻⁶ cm/s
BTK degradation (in words) (C481S mutant BTK): dose-dependent BTK degradation; also recorded: degrades both wild-type BTK and the C481S mutant with similar potency
IKZF3 level, mean (IKZF3; 1 injection): 34.6975
IKZF3 level, mean (IKZF3; 7 injections): 73.2929
IKZF3 quantification (IKZF3; RC-1 50 mg/kg, 50 mg/kg): 18.4248 and 33.3032 and 114.952 and 16.6702
IKZF3 quantification (IKZF3; RC-1 100 mg/kg, 100 mg/kg): 2.1 and 60.2254 and 21.7286
MOLM-14 Cell Viability% (MOLM-14 cells; 1.00E-05 M): 9.063% and 7.786% and 9.631% and 4.44% and 5.17%
MOLM-14 Cell Viability% (MOLM-14 cells; 1.60E-08 M): 88.4631% and 84.0227% and 77.0073% and 72.5061% and 64.8418%
MOLM-14 Cell Viability% (MOLM-14 cells; 2.00E-06 M): 14.0511% and 10.5434% and 12.6318% and 8.942% and 10.7462%
MOLM-14 Cell Viability% (MOLM-14 cells; 3.20E-09 M): 89.923% and 89.9432% and 89.2741% and 70.2555% and 64.2336%
MOLM-14 Cell Viability% (MOLM-14 cells; 4.00E-07 M): 53.7916% and 40.7948% and 45.6813% and 36.6383% and 39.4972%
MOLM-14 Cell Viability% (MOLM-14 cells; 6.40E-10 M): 94.6269% and 96.3301% and 81.3058% and 78.386% and 72.2831%
MOLM-14 Cell Viability% (MOLM-14 cells; 8.00E-08 M): 69.5864% and 88.0779% and 68.3495% and 63.8078% and 82.5426%
IC50 (MOLM-14 cells; Homo sapiens, MOLM-14, 72 h, read-out: Cell viability IC50, MOLM-14 cells, 72 h, Alamar Blue): 300 nM
IC50 (MOLM-14 cells; read-out: Cell viability IC50, MOLM-14 cells, 72 h, Alamar Blue): 310 nM
